Key:
[1] = target: T1, menin/MLL (terbium chelate-labeled menin, FITC-MBM1 peptide) (Homo sapiens, UniProt O00255, T541A); assay: Menin/MLL homogenous time-resolved fluorescence (HTRF) assay; assay type: binding; conditions: 30 min incubation
T1 construct: Menin (a.a 1-610-6xhis tag, 2.3 mg/mL in 20 mM Hepes)
T1 sequence (O00255 with tags, fused parts or gaps T541A): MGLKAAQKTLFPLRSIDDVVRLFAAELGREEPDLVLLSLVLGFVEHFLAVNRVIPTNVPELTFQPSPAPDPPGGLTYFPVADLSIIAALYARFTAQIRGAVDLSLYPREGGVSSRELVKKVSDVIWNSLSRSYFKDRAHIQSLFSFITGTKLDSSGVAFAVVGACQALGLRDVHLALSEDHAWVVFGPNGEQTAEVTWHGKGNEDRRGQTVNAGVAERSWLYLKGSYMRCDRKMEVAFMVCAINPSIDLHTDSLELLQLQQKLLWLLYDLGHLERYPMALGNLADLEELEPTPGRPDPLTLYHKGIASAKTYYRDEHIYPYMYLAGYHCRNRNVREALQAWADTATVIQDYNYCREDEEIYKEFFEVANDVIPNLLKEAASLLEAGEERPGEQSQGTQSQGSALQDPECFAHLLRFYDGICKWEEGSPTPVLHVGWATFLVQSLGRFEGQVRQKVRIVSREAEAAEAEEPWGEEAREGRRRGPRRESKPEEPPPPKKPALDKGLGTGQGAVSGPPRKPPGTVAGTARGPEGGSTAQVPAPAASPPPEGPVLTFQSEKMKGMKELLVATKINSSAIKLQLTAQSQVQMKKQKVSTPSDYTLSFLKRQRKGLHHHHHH
How it was run: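 Competition binding read by time-resolved FRET (FITC 520 nm over terbium 490 nm) after compound meets labeled menin 1-610-His […] for 30 min, then FITC-MBM1 (75 nM) for 15 min, ambient temperature, 0.5% DMSO. Eleven-point four-fold dilutions, usually starting at 10 μM, fitted to four-parameter curves for IC50.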

MEIS1 mRNA expression = MEIS1 mRNA expression assay (Quantigene Singleplex) in MOLM14 cells; assay type: cell-based, human; conditions: Homo sapiens, MOLM-14, 48 h, 48 hours incubation
How it was run: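 Read-out: MEIS1 transcript counts, background-subtracted and divided by RPL28, expressed as fold change over DMSO-treated cells, then dose-response modelled for IC50. MOLM14 cells (3,750/well) received graded compound for 48 h before lysis and QuantiGene hybridization at 55 °C.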

SMILES	IC50 [1]	IC50 (MEIS1 mRNA expression)
Cc1cncc2c1c(CC1CN(CC3CCOC3)C1)cn2-c1ccc(F)cc1C(=O)N(C)C(C)C (stereo not shown) [Compound 287]	0.034 nM	26 nM
Cc1cncc2c1c(CC1CN(CC3CCCO3)C1)cn2-c1ccc(F)cc1C(=O)N(C)C(C)C (stereo not shown) [Compound 288]	0.059 nM	43 nM
Cc1cncc2c1c(CC1CN(CC3CCCOC3)C1)cn2-c1ccc(F)cc1C(=O)N(C)C(C)C (stereo not shown) [Compound 289]	0.055 nM	31 nM
Cc1cncc2c1c(CC1CN(C3CCCNC(=O)C3)C1)cn2-c1ccc(F)cc1C(=O)N(C)C(C)C (stereo not shown) [Compound 290]	0.393 nM	170 nM
Cc1cncc2c1c(CC1CN(C3CCCN(C)C(=O)C3)C1)cn2-c1ccc(F)cc1C(=O)N(C)C(C)C (stereo not shown) [Compound 291]	0.594 nM	468 nM
CC(=O)N1CCCC(N2CC(Cc3cn(-c4ccc(F)cc4C(=O)N(C)C(C)C)c4cncc(C)c34)C2)CC1 (stereo not shown) [Compound 295]	0.171 nM	338 nM
CC(=O)N1CCC2(CCC2N2CC(Cc3cn(-c4ccc(F)cc4C(=O)N(C)C(C)C)c4cncc(C)c34)C2)CC1 (stereo not shown) [Compound 296]	0.339 nM	549 nM
CC(=O)N1CCCCC1C1(CN2CC(Cc3cn(-c4ccc(F)cc4C(=O)N(C)C(C)C)c4cncc(C)c34)C2)CC1 (stereo not shown) [Compound 297]	0.477 nM	> 1000 nM
CC(=O)N1CCC(C2(CN3CC(Cc4cn(-c5ccc(F)cc5C(=O)N(C)C(C)C)c5cncc(C)c45)C3)CC2)CC1 [Compound 298]	0.083 nM	178 nM
CC(=O)N1CC2CC(CN3CC(Cc4cn(-c5ccc(F)cc5C(=O)N(C)C(C)C)c5cncc(C)c45)C3)CC(C2)C1 (stereo not shown) [Compound 300]	0.116 nM	55 nM
CC(=O)N1[C@H](C)CC(N2CC(Cc3cn(-c4ccc(F)cc4C(=O)N(C)C(C)C)c4cncc(C)c34)C2)C[C@@H]1C (stereo partly shown) [Compound 301]	0.191 nM	144 nM
CC(=O)N1[C@@H](C)CC(N2CC(Cc3cn(-c4ccc(F)cc4C(=O)N(C)C(C)C)c4cncc(C)c34)C2)C[C@@H]1C (stereo partly shown) [Compound 302]	0.05 nM	78 nM
CC(=O)N1CCC2(CCCC(N3CC(Cc4cn(-c5ccc(F)cc5C(=O)N(C)C(C)C)c5cncc(C)c45)C3)C2)C1 (stereo not shown) [Compound 303]	0.179 nM	~77 nM
CC(=O)N1CC2CC1C2C(C)N1CC(Cc2cn(-c3ccc(F)cc3C(=O)N(C)C(C)C)c3cncc(C)c23)C1 (stereo not shown) [Compound 304]	2.8 nM	> 1000 nM
CC(=O)N1CC2C(CN3CC(Cc4cn(-c5ccc(F)cc5C(=O)N(C)C(C)C)c5cncc(C)c45)C3)C2C1 (stereo not shown) [Compound 305]	0.146 nM	~297 nM
CC(=O)N1CC2CCC(N3CC(Cc4cn(-c5ccc(F)cc5C(=O)N(C)C(C)C)c5cncc(C)c45)C3)C2C1 (stereo not shown) [Compound 306]	0.468 nM	159 nM
Cc1cncc2c1c(CC1CN(CC3(O)CCOCC3)C1)cn2-c1ccc(F)cc1C(=O)N(C)C(C)C [Compound 307]	0.044 nM	48 nM
Cc1noc(CN2CC(Cc3cn(-c4ccc(F)cc4C(=O)N(C)C(C)C)c4cncc(C)c34)C2)n1 [Compound 308]	60.2 nM	> 1000 nM
CC(=O)N1CCC(CN2CC[C@@H](Cc3cn(-c4ccc(F)cc4C(=O)N4CCC45CCC5)c4cncc(C)c34)C2)CC1 [Compound 310]	0.119 nM	351 nM
CC(=O)N1CCC(CN2CC[C@@H](Cc3cn(-c4ccc(F)cc4C(=O)N4CCCCC4C)c4cncc(C)c34)C2)CC1 (stereo partly shown) [Compound 317]	0.291 nM	65 nM
COC1CC(C)N(C(=O)c2cc(F)ccc2-n2cc(C[C@@H]3CCN(CC4CCN(C(C)=O)CC4)C3)c3c(C)cncc32)C1 (stereo partly shown) [Compound 318]	0.22 nM	1380 nM
CC(=O)N1CCC(CN2CC[C@@H](Cc3cn(-c4ccc(F)cc4C(=O)N4C[C@@H](O)C[C@H]4C)c4cncc(C)c34)C2)CC1 [Compound 327]	0.819 nM	~616 nM

SMILES	IC50 [1]	IC50 (MEIS1 mRNA expression)
Cc1cncc2c1c(C[C@@H]1CCN(CC3CCN(C(=O)C(C)C)CC3)C1)cn2-c1ccc(F)cc1C(=O)N(CCO)C(C)C [Compound 329]	0.152 nM	13 nM
Cc1cncc2c1c(C[C@@H]1CCN(CC3CCN(C(=O)C(C)C)CC3)C1)cn2-c1ccc(F)cc1C(=O)N(C[C@H](C)O)C(C)C [Compound 330]	0.13 nM	10 nM
Cc1cncc2c1c(C[C@@H]1CCN(CC3CCN(C(=O)C(C)C)CC3)C1)cn2-c1ccc(F)cc1C(=O)N(C[C@@H](C)O)C(C)C [Compound 331]	0.117 nM	29 nM
Cc1cncc2c1c(CC1CCN(CC3CCN(C(=O)C(C)C)CC3)C1)cn2-c1ccc(F)cc1C(=O)N1CC(O)CC1C (stereo not shown) [Compound 332]	0.13 nM	196 nM
Cc1cncc2c1c(C[C@@H]1CCN(CC3CCN(C(=O)C(C)C)CC3)C1)cn2-c1ccc(F)cc1C(=O)N1CC(O)CC1C (stereo partly shown) [Compound 333]	0.251 nM	~394 nM
COC(=O)N1CCC(CN2CC[C@@H](Cc3cn(-c4ccc(F)cc4C(=O)N(CCO)C(C)C)c4cncc(C)c34)C2)CC1 [Compound 334]	0.224 nM	12 nM
COC(=O)N1CCC(CN2CC[C@@H](Cc3cn(-c4ccc(F)cc4C(=O)N(C[C@H](C)O)C(C)C)c4cncc(C)c34)C2)CC1 [Compound 335]	0.193 nM	18 nM
COC(=O)N1CCC(CN2CC[C@@H](Cc3cn(-c4ccc(F)cc4C(=O)N(C[C@@H](C)O)C(C)C)c4cncc(C)c34)C2)CC1 [Compound 336]	0.128 nM	33 nM
CC(=O)N1CCC(C)(CN2CC[C@@H](Cc3cn(-c4ccc(F)cc4C(=O)N(CCO)C(C)C)c4cncc(C)c34)C2)CC1 [Compound 337]	0.092 nM	24 nM
CC(=O)N1CCC(C)(CN2CC[C@@H](Cc3cn(-c4ccc(F)cc4C(=O)N(C[C@H](C)O)C(C)C)c4cncc(C)c34)C2)CC1 [Compound 338]	0.185 nM	37 nM
CC(=O)N1CCC(C)(CN2CC[C@@H](Cc3cn(-c4ccc(F)cc4C(=O)N(C[C@@H](C)O)C(C)C)c4cncc(C)c34)C2)CC1 [Compound 339]	0.193 nM	68 nM
Cc1cncc2c1c(C[C@@H]1CCN(CC3CCN(C(=O)C(C)(C)O)CC3)C1)cn2-c1ccc(F)cc1C(=O)N1CCCC12CC2 [Compound 340]	0.034 nM	> 1000 nM
Cc1cncc2c1c(C[C@@H]1CCN(CC3CCN(C(=O)C(C)(C)O)CC3)C1)cn2-c1ccc(F)cc1C(=O)N1CCC2CC21 (stereo partly shown) [Compound 341]	0.037 nM	20 nM
CCC1CCCN1C(=O)c1cc(F)ccc1-n1cc(C[C@@H]2CCN(CC3CCN(C(=O)C(C)(C)O)CC3)C2)c2c(C)cncc21 (stereo partly shown) [Compound 342]	0.188 nM	107 nM
Cc1cncc2c1c(C[C@@H]1CCN(CC3CCN(C(=O)C(C)(C)O)CC3)C1)cn2-c1ccc(F)cc1C(=O)N1[C@H](C)CC[C@H]1C [Compound 343]	0.045 nM	13 nM
Cc1cncc2c1c(C[C@@H]1CCN(CC3CCN(C(=O)C(C)(C)O)CC3)C1)cn2-c1ccc(F)cc1C(=O)N1[C@H](C)CC[C@@H]1C [Compound 344]	~0.058 nM	14 nM
Cc1cncc2c1c(C[C@@H]1CCN(CC3CCN(C(=O)C(C)(C)O)CC3)C1)cn2-c1ccc(F)cc1C(=O)N1CC2CC1CO2 (stereo partly shown) [Compound 345]	0.204 nM	36 nM
CC(=O)N1CC2CC(CN3CC[C@@H](Cc4cn(-c5ccc(F)cc5C(=O)N5CCC[C@H]5CO)c5cncc(C)c45)C3)CC(C2)C1 (stereo partly shown) [Compound 349]	6.68 nM	> 1000 nM
CC(=O)N1CC2CC(CN3CC[C@@H](Cc4cn(-c5ccc(F)cc5C(=O)N(CC(C)O)C(C)C)c5cncc(C)c45)C3)CC(C2)C1 (stereo partly shown) [Compound 350]	0.583 nM	~1000 nM
CC(=O)N1CCC(CN2CC[C@@H](Cc3cn(-c4ccc(F)cc4C(=O)N4[C@H](C)CC[C@H]4C)c4cncc(C)c34)C2)CC1 [Compound 354]	0.04 nM	18 nM
Cc1cncc2c1c(C[C@@H]1CCN(CC3CCOCC3)C1)cn2-c1ccc(F)cc1C(=O)N1CCC[C@H]1CO [Compound 360]	0.127 nM	107 nM
Cc1cncc2c1c(C[C@@H]1CN[C@H](C)C1)cn2-c1ccc(F)cc1C(=O)N(C)C(C)C [Compound 504]	23.9 nM	> 1000 nM

Source: US20230250096A1, “SUBSTITUTED PHENYL-1H-PYRROLO[2,3-c] PYRIDINE DERIVATIVES” (Janssen Pharmaceutica NV, priority 2021, published 2023)
